Laboratory results: patent US20070270418A1, “Inhibitors of P38 and Methods of Using the Same” (priority 2003, published 2007)

test system: TNFα release from THP-1 cells; test: TNFα release from LPS-stimulated THP-1 cells; format: cell-based; details: Homo sapiens, THP-1, 18 h, LPS 10 μg/ml, 18 hours; read-out: TNFα (THP-1) IC50
Text: Compounds of the invention are screened for the ability to inhibit TNFα and IL-1β release from THP-1 cells stimulated with lipopolysaccharide (LPS) in vitro. The ability of compounds to inhibit TNFα and IL-1β release in this in vitro assay is correlated with the inhibition of p38 activity and TNFα and IL-1β expression in vivo, and is therefore an indicator of potential in vivo therapeutic activity (Lee J. C. et al, Ann. N.Y. Acad. Sci. 696: 149-170, 1993 and Nature, 372: 739-746, 1994).
THP-1 cells from ATCC (TIB202) are maintained at 37° C., 5% CO2 in RPMI 1640 media (MediaTech, Herndon, Va.) containing 4.5 g/L glucose, supplemented with 10% fetal bovine serum, 1% penicillin/streptomycin and 50 μM β-mercaptoethanol.
Test compounds are initially dissolved in RPMI media with 1% DMSO (v/v). Compounds are then serially diluted in RPMI media for all subsequent dilutions. The assay is performed under sterile conditions. THP-1 cells at a culture density of 6-8×10^5 cells/ml are collected and resuspended in the RPMI media at 10^6 cells/ml. 100 μl of resuspended cells are added to each well, which contain 100 μl of a test compound. Test compounds are prepared at twice the final concentration. Final DMSO concentration is no more than 0.5% (v/v). Cells are preincubated with compound for 30 minutes at 37° C., 5% CO2 prior to stimulation with lipopolysaccharide (LPS) (Sigma L-2880, 4 mg/ml stock in PBS). The final LPS concentration in each well is 10 or 30 μg/ml for TNFα and IL-1β release, respectively. Unstimulated control cell suspensions receive PBS vehicle only. Cell mixtures are incubated for 18 or 48 hours for TNFα and IL-1β release, respectively. 150 μl of supernatants are taken and transferred to a fresh plate and stored at −20° C. until further analysis.

| Compound | IC50 [nM] |
| --- | --- |
| OC1(CNc2nccc(-c3c(-c4ccc(F)cc4)nc4sccn34)n2)CCCCC1 [CCL] | 15.5 |
| FC(F)(F)c1cccc(-c2nc3occn3c2-c2ccnc(N[C@@H]3CN4CCC3CC4)n2)c1 [CCXCIII] | 172 |
| FC(F)(F)c1cccc(-c2nc3occn3c2-c2ccnc(N[C@H]3CN4CCC3CC4)n2)c1 [CCXCIV] | 90 |
| CN(C)CC(C)(C)CNc1nccc(-c2c(-c3ccc(F)cc3F)nc3occn23)n1 [CCXCIX] | 17.8 |
| Cc1ccccc1-c1nc2occn2c1-c1ccnc(NCC(C)(C)CN(C)C)n1 [CCXCVIII] | 85.1 |
| Fc1ccc(-c2nc3occn3c2-c2ccnc(N[C@H]3CN4CCC3CC4)n2)c(Cl)c1 [CCXCV] | 8.7 |
| CN(C)CC(C)(C)CNc1nccc(-c2c(-c3ccc(F)cc3Cl)nc3occn23)n1 [CCXCX] | 78.2 |
| Fc1ccc(-c2nc3occn3c2-c2ccnc(N[C@@H]3CN4CCC3CC4)n2)c(Cl)c1 [CCXC] | 72 |
| Oc1ccc(C(O)CNc2nccc(-c3c(-c4ccc(F)cc4)nc4sccn34)n2)cc1 (centres unmarked) [CCXII] | 24.1 |

Second part, the compound after the results:

| IC50 [nM] | Compound |
| --- | --- |
| 43.4 | CC(C)[C@@H](CO)Nc1nccc(-c2c(-c3ccc(F)c(F)c3)nc3sccn23)n1 [CCVII] |
| 5.63 | Fc1ccc(-c2nc3sccn3c2-c2ccnc(NCC3CC3)n2)cc1 [CCXIII] |
| 5.03 | C[C@H](O)CNc1nccc(-c2c(-c3ccc(F)cc3)nc3sccn23)n1 [CCXIV] |
| 6.84 | CC[C@@H](CO)Nc1nccc(-c2c(-c3ccc(F)cc3)nc3sccn23)n1 [CCXIX] |

same assay, conditions: Homo sapiens, THP-1, 18 h, read-out: TNFα (THP-1) IC50 (nM)

| Compound | IC50 [nM] |
| --- | --- |
| Fc1ccc(-c2nc3occn3c2-c2ccnc(N[C@@H]3CN4CCC3CC4)n2)c(F)c1 [CCLXXXIX] | 3.2 |
| Cc1ccccc1-c1nc2occn2c1-c1ccnc(N[C@@H]2CN3CCC2CC3)n1 [CCXCII] | 47.8 |
| Clc1ccccc1-c1nc2occn2c1-c1ccnc(N[C@@H]2CN3CCC2CC3)n1 [CCXCI] | 77 |
| CN1[C@@H]2CC[C@H]1C[C@@H](Nc1nccc(-c3c(-c4ccccc4Cl)nc4occn34)n1)C2 [CCXCVII] | 24.4 |
| CN1[C@@H]2CC[C@H]1C[C@@H](Nc1nccc(-c3c(-c4ccc(F)cc4Cl)nc4occn34)n1)C2 [CCXCVI] | 15.5 |

same assay, conditions: LPS 10 μg/ml, 18 hours; read-out: TNFα (THP-1) IC50

| Compound | IC50 [nM] |
| --- | --- |
| CC(C)[C@@H](CO)Nc1nccc(-c2c(-c3ccc(Br)cc3)nc3sccn23)n1 [CCLXXI] | 100 |
| Cc1ccc(-c2nc3sccn3c2-c2ccnc(N[C@H](CO)C(C)C)n2)cc1 [CCLXXVII] | 58.7 |
| CC(C)[C@@H](CO)Nc1nccc(-c2c(-c3ccc(F)c(F)c3)nc3sccn23)n1 [CCLXXV] | 43.3 |
| COc1cccc(-c2nc3sccn3c2-c2ccnc(N[C@H](CO)C(C)C)n2)c1 [CCLXX] | 93.5 |

biological target: T1, p38α (Homo sapiens, UniProt Q16539); test: p38 MAP Kinase assay, ATF2 phosphorylation (ELISA); format: biochemical; details: 40 μM ATP
T1 construct: p38 MAP Kinases are recombinant human full-length proteins with an amino-terminal GST fusion; GST (N); purchased Upstate (Charlottesville, Va.); host or cells: E. coli
T1 sequence (Q16539 whole entry, the tested form may be a part): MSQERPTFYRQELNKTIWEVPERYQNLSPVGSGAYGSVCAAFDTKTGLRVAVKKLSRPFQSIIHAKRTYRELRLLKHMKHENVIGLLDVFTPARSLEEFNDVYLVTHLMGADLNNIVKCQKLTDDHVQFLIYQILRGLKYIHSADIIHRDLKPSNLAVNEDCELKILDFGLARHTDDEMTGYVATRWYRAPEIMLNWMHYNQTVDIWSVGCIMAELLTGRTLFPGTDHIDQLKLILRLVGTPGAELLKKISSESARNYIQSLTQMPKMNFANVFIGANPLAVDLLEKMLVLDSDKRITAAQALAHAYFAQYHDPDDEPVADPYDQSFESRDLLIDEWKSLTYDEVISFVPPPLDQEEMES
Text: Compounds of the invention are screened for the ability to inhibit ATF2 phosphorylation by p38 MAP Kinase in vitro. The ability of compounds to inhibit ATF2 phosphorylation in this in vitro assay is correlated with the inhibition of p38 MAP Kinase and TNFα expression in vivo, and is therefore an indicator of potential in vivo therapeutic activity (Raingeaud, J., et al, J. Biol. Chem., 270: 7420-7426, 1995, Brinkman, M. N., et al, J. Bil. Chem. 274: 30882-30886, 1999 and Fuchs, S. Y. et al, J. Biol. Chem. 275: 12560-12564, 2000).
All kinases and the substrate ATF2 are acquired from Upstate (Charlottesville, Va.). p38 MAP Kinases are recombinant human full-length proteins with an amino-terminal GST fusion, expressed in and purified from E. coli. ATF2 is a GST fusion protein containing amino acids 19-96 of human ATF2 expressed in E. coli. All proteins were aliquoted and stored at −80° C.
p38 MAP Kinase assays are performed using an assay buffer containing 25 mM HEPES, pH 7.5, 10 mM MgCl2, 2 mM DTT, 20 mM β-glycerophosphate, 0.1 mM Na3VO4, 40 μM ATP and 1.25 μM of ATF2, together with 6 ng of p38α protein, 12 ng p38β protein, 1.5 ng p38γ, or 0.4 ng JNK2α2. Compounds are serially diluted in DMSO and 2 μL of test compound at 25× final concentration is used. The vehicle control receives DMSO only. Test compounds are pre-incubated with 20 μl of enzyme in kinase buffer (25 mM HEPES, pH 7.5, 10 mM MgCl2, 2 mM DTT, 20 mM 3-glycerophosphate and 0.1 mM Na3VO4) at room temperature for 15 minutes. […] The reactions are incubated for 30 minutes at 37° C. and terminated by the addition of 18 μl of 200 mM EDTA. An ELISA method is used to measure the phosphorylation of ATF2 at Thr 69. High binding 96-well plates (Corning 3369) are coated with 50 μl of kinase reaction for 1 hour at 37° C. The coated plates are washed with 200 μl washing buffer (25 mM Tris HCl, pH 8.3, 192 mM glycine, 0.1% SDS and 0.05% Tween-20) three times. The plates are then washed three times with SuperBlock in TBS (Pierce, 37535). After blocking, plates are incubated with 50 μl of rabbit anti-phospho-ATF2 antibody (Cell Signaling, 9221 L, 1:500) for 30 minutes at 37° C. Plates are washed three times with washing buffer prior to incubation with 50 μl HRP-conjugated goat anti-rabbit antibody (Cell Signaling, 7074, 1:500) for 30 minutes at 37° C. Plates are then washed three times with washing buffer before incubation with 50 μl of Ultra TMB-ELISA (Pierce, 34028) for 8 minutes at room temperature. Finally, 50 μl of phosphoric acid (1 M) is added to stop reactions and plate absorbance is read at 450 nm on a SpectraMax 250 plate reader.

| Compound | IC50 [µM] |
| --- | --- |
| Fc1ccc(-c2nc3occn3c2-c2ccnc(N[C@@H]3CN4CCC3CC4)n2)c(F)c1 [CCLXXXIX] | 0.0013 |
| OC1(CNc2nccc(-c3c(-c4ccc(F)cc4)nc4sccn34)n2)CCCCC1 [CCL] | 0.0272 |
| FC(F)(F)c1cccc(-c2nc3occn3c2-c2ccnc(N[C@@H]3CN4CCC3CC4)n2)c1 [CCXCIII] | 0.0049 |
| Cc1ccccc1-c1nc2occn2c1-c1ccnc(N[C@@H]2CN3CCC2CC3)n1 [CCXCII] | 0.0163 |
| FC(F)(F)c1cccc(-c2nc3occn3c2-c2ccnc(N[C@H]3CN4CCC3CC4)n2)c1 [CCXCIV] | 0.0164 |
| CN(C)CC(C)(C)CNc1nccc(-c2c(-c3ccc(F)cc3F)nc3occn23)n1 [CCXCIX] | 0.0061 |
| Clc1ccccc1-c1nc2occn2c1-c1ccnc(N[C@@H]2CN3CCC2CC3)n1 [CCXCI] | 0.0112 |
| Cc1ccccc1-c1nc2occn2c1-c1ccnc(NCC(C)(C)CN(C)C)n1 [CCXCVIII] | 0.0522 |
| CN1[C@@H]2CC[C@H]1C[C@@H](Nc1nccc(-c3c(-c4ccccc4Cl)nc4occn34)n1)C2 [CCXCVII] | 0.0068 |
| CN1[C@@H]2CC[C@H]1C[C@@H](Nc1nccc(-c3c(-c4ccc(F)cc4Cl)nc4occn34)n1)C2 [CCXCVI] | 0.0036 |
| Fc1ccc(-c2nc3occn3c2-c2ccnc(N[C@H]3CN4CCC3CC4)n2)c(Cl)c1 [CCXCV] | 0.0097 |
| CN(C)CC(C)(C)CNc1nccc(-c2c(-c3ccc(F)cc3Cl)nc3occn23)n1 [CCXCX] | 0.0203 |
| Fc1ccc(-c2nc3occn3c2-c2ccnc(N[C@@H]3CN4CCC3CC4)n2)c(Cl)c1 [CCXC] | 0.0068 |
| Oc1ccc(C(O)CNc2nccc(-c3c(-c4ccc(F)cc4)nc4sccn34)n2)cc1 (centres unmarked) [CCXII] | 0.00881 |

Second part, the compound after the results:

| IC50 [µM] | Compound |
| --- | --- |
| 0.0757 | CC(C)[C@@H](CO)Nc1nccc(-c2c(-c3ccc(Br)cc3)nc3sccn23)n1 [CCLXXI] |
| 0.147 | Cc1ccc(-c2nc3sccn3c2-c2ccnc(N[C@H](CO)C(C)C)n2)cc1 [CCLXXVII] |
| 0.191 | CC(C)[C@@H](CO)Nc1nccc(-c2c(-c3ccc(F)c(F)c3)nc3sccn23)n1 [CCLXXV] |
| 0.112 | COc1cccc(-c2nc3sccn3c2-c2ccnc(N[C@H](CO)C(C)C)n2)c1 [CCLXX] |
| 0.191 | CC(C)[C@@H](CO)Nc1nccc(-c2c(-c3ccc(F)c(F)c3)nc3sccn23)n1 [CCVII] |
| 0.0133 | Fc1ccc(-c2nc3sccn3c2-c2ccnc(NCC3CC3)n2)cc1 [CCXIII] |
| 0.0121 | C[C@H](O)CNc1nccc(-c2c(-c3ccc(F)cc3)nc3sccn23)n1 [CCXIV] |
| 0.00303 | CC[C@@H](CO)Nc1nccc(-c2c(-c3ccc(F)cc3)nc3sccn23)n1 [CCXIX] |
